System: HIV-1 viral constructs Q60, K-60, and V-18
Assay: Cell spread assay (HIV-1 p24 accumulation in MT-4 T-lymphoid cells), mutant viral constructs
Assay type: cell-based
Conditions: one range stated for the three mutant viral constructs together; MT-4 cells, 4 days postinfection
Procedure: Inhibition of the spread of HIV in cell culture was measured according to Nunberg et al., J. Virol. […] In this assay, MT-4 T-lymphoid cells were infected with HIV-1 (wild-type, unless otherwise indicated) by using a predetermined inoculum, and cultures were incubated for 24 h. At this time, ≦1% of the cells were positive by indirect immunofluorescence. Cells were then extensively washed and distributed into 96-well culture dishes. Serial twofold dilutions of inhibitor were added to the wells, and cultures were continued for 3 additional days. At 4 days postinfection, 100% of the cells in control cultures were infected. HIV-1 p24 accumulation was directly correlated with virus spread. The cell culture inhibitory concentration was defined as the inhibitor concentration in nanomoles/liter which reduced the spread of infection by at least 95%, or CIC95.

CC(C)(C)NC(=O)[C@@H]1CN(Cc2cccnc2)CCN1C[C@@H](O)C[C@@H](Cc1ccccc1)C(=O)N[C@H]1c2ccccc2C[C@H]1O [indinavir, N-(2(R)-hydroxy-1(S)-indanyl)-2(R)-phenylmethyl-4-(S)-hydroxy-5-(1-(4-(3-pyridyl-methyl)-2(S)-N′-(t-butylcarboxamido)-piperazinyl))-pentaneamide]
CIC95 against the viral constructs Q60, K-60, and V-18: greater than 1000 nM

— patent US6589962B1, “Alpha-hydroxy-gamma-[[(carbocyclic-or heterocyclic-substituted)amino]carbonyl]alkanamide derivatives and uses thereof” (priority 1999, dated 2003)
